The first assay addresses T1, Coagulation factor X (Homo sapiens, UniProt P00742). In words: Inhibition of human fXa at 100 uM using Cbz-D-Arg-Gly-L-Arg-pNA as substrate preincubated for 30 mins followed by substrate addition and measured after 60 mins by […] method relative to control. Conditions: time 90.0 min.
T1 sequence (P00742 41-179 limits assumed): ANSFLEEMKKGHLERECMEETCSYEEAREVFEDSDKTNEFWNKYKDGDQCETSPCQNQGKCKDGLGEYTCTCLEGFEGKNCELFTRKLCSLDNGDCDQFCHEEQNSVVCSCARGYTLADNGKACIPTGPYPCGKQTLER
T1 sequence (P00742 235-488 limits assumed): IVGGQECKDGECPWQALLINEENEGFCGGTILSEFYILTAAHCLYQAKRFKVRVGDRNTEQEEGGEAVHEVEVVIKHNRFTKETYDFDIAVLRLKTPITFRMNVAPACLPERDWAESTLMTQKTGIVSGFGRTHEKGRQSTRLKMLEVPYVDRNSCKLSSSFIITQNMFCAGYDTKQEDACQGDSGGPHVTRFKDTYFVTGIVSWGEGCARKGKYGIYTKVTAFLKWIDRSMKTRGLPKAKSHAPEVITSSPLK
One may read the inhibition as the percentage by which the read-out fell short of the control. The molecule `CC(C)N1CCC(NC(=O)c2ccn(CC(=O)Nc3ccc(Cl)cc3)c2)CC1` gave an inhibition of 66%.

The target of a further assay is T1, Coagulation factor X. Put plainly: Inhibition of human fXa assessed as inhibition constant using Cbz-D-Arg-Gly-L-Arg-pNA as substrate preincubated for 30 mins followed by substrate addition and measured after 60 mins by […] method.
Conditions: not given
The term Ki denotes the equilibrium dissociation constant of an inhibitor or competing ligand from its target. With `CC(C)N1CCC(NC(=O)c2cc3ccccc3n2Cc2cc(-c3ccc(Br)s3)on2)CC1`, the inhibition constant (Ki) amounted to 12 nM.

Consider `CC(C)N1CCC(NC(=O)c2cccn2CC(=O)Nc2ccc(Cl)cc2)CC1`, for which the Ki was determined as 51 nM. For the molecule `CC(C)N1CCC(NC(=O)c2nc3ccccc3n2Cc2cc(-c3ccc(Cl)s3)on2)CC1`, the inhibitory constant (Ki) turned out to be 0.5 nM. Take `CC(C)N1CCC(NC(=O)c2cn(Cc3cc(-c4ccc(Cl)s4)on3)c3ncccc23)CC1`: the Ki is 65 nM. On the same count and under the same terms, the figure for `CC(C)N1CCC(NC(=O)c2ccn(Cc3cc(-c4ccc(Cl)s4)on3)n2)CC1` is 37 nM; for `CC(C)N1CCC(NC(=O)c2cc3ccccc3n2Cc2cc(-c3cccs3)on2)CC1` it is 162 nM. `CC(C)N1CCC(NC(=O)c2cc3ccccc3n2CC(=O)Nc2ccccc2)CC1`: the Ki was 204 nM.

Consider `Cc1ccc(-c2cc(Cn3c(C(=O)NC4CCN(C(C)C)CC4)cc4ccccc43)no2)s1`, for which the Ki turned out to be 55 nM.

`C#Cc1ccc(NC(=O)Cn2c(C(=O)NC3CCN(C(C)C)CC3)cc3ccccc32)cc1`: the Ki was 49 nM. Still for that read-out and setting: as for `CC(C)N1CCC(NC(=O)c2cn(CC(=O)Nc3ccc(Cl)cc3)c3ccccc23)CC1`, the figure is 5120 nM.

With `C#Cc1ccc(-c2cc(Cn3c(C(=O)NC4CCN(C(C)C)CC4)cc4ccccc43)no2)s1`, the Ki is 13 nM. `CC(C)N1CCC(NC(=O)c2nn(Cc3cc(-c4ccc(Cl)s4)on3)c3ccccc23)CC1`: the Ki came to 9 nM. As to `CC(C)N1CCC(NC(=O)c2cc3cccnc3n2CC(=O)Nc2ccc(Cl)cc2)CC1`, the Ki is 11 nM. The same measure, in the same setting: the figure for `CC(C)N1CCC(NC(=O)c2cn(CC(=O)Nc3ccc(Cl)cc3)cn2)CC1` is 20500 nM; for `CC(C)N1CCC(NC(=O)c2ccn(CC(=O)Nc3ccc(Cl)cc3)n2)CC1` it is 204 nM; for `CC(C)N1CCC(NC(=O)c2cc3cccnc3n2Cc2cc(-c3ccc(Cl)s3)on2)CC1` it is 4 nM. Regarding `CC(C)N1CCC(NC(=O)c2nn(CC(=O)Nc3ccc(Cl)cc3)c3ccccc23)CC1`, the Ki turned out to be 1740 nM. `Cc1ccc(NC(=O)Cn2c(C(=O)NC3CCN(C(C)C)CC3)cc3ccccc32)cc1`: the Ki stood at 56 nM. The same measure, in the same setting: as for `CC(C)N1CCC(NC(=O)c2nc3ccccc3n2CC(=O)Nc2ccc(Cl)cc2)CC1`, the figure is 6 nM; as for `CC(C)N1CCC(NC(=O)c2cc3ccccc3n2CC(=O)Nc2ccc(F)cc2)CC1`, 63 nM. As to `CC(C)N1CCC(NC(=O)c2cn(CC(=O)Nc3ccc(Cl)cc3)c3ncccc23)CC1`, the Ki was determined as 2930 nM.

Turning to `CC(C)N1CCC(NC(=O)c2cn(Cc3cc(-c4ccc(Cl)s4)on3)cn2)CC1`, the Ki stood at 14800 nM. On to `CC(C)N1CCC(NC(=O)c2cccn2Cc2cc(-c3ccc(Cl)s3)on2)CC1`, for which the Ki amounted to 57 nM. Turning to `CC(C)N1CCC(NC(=O)c2c3ccccc3nn2Cc2cc(-c3ccc(Cl)s3)on2)CC1`, the Ki stood at 8 nM. On to `CC(C)N1CCC(NC(=O)c2cc3ccccc3n2Cc2cc(-c3ccc(F)s3)on2)CC1`, for which the Ki turned out to be 70 nM. In the case of `CC(C)N1CCC(NC(=O)c2ccnn2Cc2cc(-c3ccc(Cl)s3)on2)CC1`, the Ki came to 52 nM.

As for `CC(C)N1CCC(NC(=O)c2ccn(Cc3cc(-c4ccc(Cl)s4)on3)c2)CC1`, the Ki came out at 1240 nM. Take `CC(C)N1CCC(NC(=O)c2cn(Cc3cc(-c4ccc(Cl)s4)on3)c3ccccc23)CC1`: the inhibition constant (Ki) worked out at 241 nM.

As for `CC(C)N1CCC(NC(=O)c2cc3ccccc3n2Cc2cc(-c3ccc(I)s3)on2)CC1`, the Ki came out at 188 nM. On to `CC(C)N1CCC(NC(=O)c2cc3ccccc3n2CC(=O)Nc2ccc(I)cc2)CC1`, for which the Ki worked out at 7 nM.

Source of the values: ChEMBL document CHEMBL5104198, “Probing Factor Xa Protein-Ligand Interactions: Accurate Free Energy Calculations and Experimental Validations of Two Series of High-Affinity Ligands” (J Med Chem, 2022).
